# Laboratory results published in patent US20260347435A1, “y-SECRETASE INHIBITOR, Aß-PEPTIDE PRODUCTION INHIBITOR, AND PHARMACEUTICAL” (priority 2022, published 2026).
# How the values were obtained:
# γ-secretase [1] = settings: phase III clinical trials; trials stopped; cited from earlier work
# γ-secretase [2] = settings: verification experiment; pseudo-inhibitor; cited from earlier work
# [3] = molecular target: T1, human γ-secretase complex, APP as substrate (Homo sapiens, UniProt P49768); test: β-galactosidase assay of γ-secretase-expressing yeast with related-art GSI, APP substrate; assay type: cell-based
# T1 construct: substrate APPC55-Gal4, β-galactosidase reporter
# Method: The yeast expressing the γ-secretase complex, the substrate APPC55-Gal4, and the three-finger toxin produced in the foregoing was inoculated in 1.5 mL of a SD-LWU medium, and the resultant was shake-cultured (180 rpm) at 30 °C until its turbidity became from 0.8 to 1.0. After that, the cultured product was centrifuged (15,000 rpm, 3 minutes, room temperature), and cells were recovered. The cells were washed with 1 mL of cooling water, and were then suspended in 30 μL of a Lysis buffer (20 mM Tris-HCl, pH: 8.0, 10 mM MgCl2, 50 mM KCl, 1 mM EDTA, 5% glycerol, and 1 mM DTT), followed by the addition of an appropriate amount of acid-treated glass beads (425 μm to 600 μm, Sigma-Aldrich Co. LLC) thereto. After that, the mixture was stirred with a vortex mixer so that the cells were crushed. The crushed liquid was centrifuged (15,000 rpm, 10 minutes, 4 °C) to provide a lysate. 80 Microliters of 4 mg/ml ortho-nitrophenyl-β-galactoside (ONPG) was added to the mixed liquid of 10 μL of the lysate and 400 μL of a Z buffer (60 mM Na2HPO4, 40 mM NaH2PO4-2H2O, 10 mM KCl, 1 mM MgSO4-7H2O, and 0.27% 2-mercaptoethanol) to start a reaction. […] After that, the absorbance (A420) of nitrophenol produced in the reaction liquid at 420 nm was measured. Further, the protein concentration of the lysate was determined by a Bradford method (Bio-Rad Laboratories, Inc.), and β-galactosidase activity was calculated [β-galactosidase unit/mg protein=1,000×A420/{time (min)×protein concentration (mg/μL)×liquid amount (μL)}].
# [4] = molecular target: T2, human γ-secretase complex, Notch1 as substrate (Homo sapiens, UniProt P49768); test: β-galactosidase assay of γ-secretase-expressing yeast with related-art GSI, Notch substrate; assay type: cell-based; settings: yeast (FIG. 7)
# T2 construct: substrate mouse Notch1(1704-1755)-Gal4, β-galactosidase reporter
# Method: The yeast expressing the γ-secretase complex, the substrate Notch-Gal4, and the three-finger toxin produced in the foregoing was inoculated in 15 mL of a SD-LWU medium, and the resultant was shake-cultured (180 rpm) at 30 °C until its turbidity became from 0.8 to 1.0. After that, a 1.5 mL aliquot of the cultured product was dispensed and centrifuged (15,000 rpm, 3 minutes, room temperature), and cells were recovered. The cells were washed with 1 mL of cooling water, and were then suspended in 30 μL of a Lysis buffer (20 mM Tris-HCl, pH: 8.0, 10 mM MgCl2, 50 mM KCl, 1 mM EDTA, 5% glycerol, and 1 mM DTT), followed by the addition of an appropriate amount of acid-treated glass beads (425 μm to 600 μm, Sigma-Aldrich Co. LLC) thereto. After that, the mixture was stirred with a vortex mixer so that the cells were crushed. The crushed liquid was centrifuged (15,000 rpm, 10 minutes, 4 °C) to provide a lysate. […] After that, the absorbance (A420) of nitrophenol produced in the reaction liquid at 420 nm was measured. Further, the protein concentration of the lysate was determined by a Bradford method (Bio-Rad Laboratories, Inc.), and β-galactosidase activity was calculated: β-galactosidase unit/mg protein=1,000×A420/{time (min)×protein concentration (mg/μL)×liquid amount (μL)}.
compound,measurement,setting,value
CC(C)[C@H](O)C(=O)N[C@@H](C)C(=O)N[C@@H]1C(=O)N(C)CCc2ccccc21 [semagacestat],serious side effects and deterioration of a cognitive function,γ-secretase [1],serious side effects and the deterioration of a cognitive function were observed
same,discharge of a decomposition product to the outside of a cell,γ-secretase [2],inhibits the discharge of a decomposition product to the outside of a cell
same,inhibition of Aβ production,γ-secretase [2],does not inhibit Aβ production
O=S(=O)(N[C@H](CO)C(C(F)(F)F)C(F)(F)F)c1ccc(Cl)s1 [begacestat],suppression of the cleavage of the APP versus the cleavage of the Notch,"[3]; 1 μM, 3 μM, and 10 μM, wild-type yeast and pdr1Δpdr3Δ strain, vs mock with dimethyl sulfoxide (FIG. 7)",the suppression of the cleavage of the APP was stronger than the suppression of the cleavage of the Notch
same,APP-specific cleavage-suppressing effect,"[3]; yeast, APP versus Notch cleavage (FIG. 7)",APP-specific inhibition by begacestat was observed
NC(=O)[C@@H](CCC(F)(F)F)N(Cc1ccc(-c2ncon2)cc1F)S(=O)(=O)c1ccc(Cl)cc1 [avagacestat],serious side effects and deterioration of a cognitive function,γ-secretase [1],serious side effects and the deterioration of a cognitive function were observed
C[C@H](NC(=O)Cc1cc(F)cc(F)c1)C(=O)N[C@H](C(=O)OC(C)(C)C)c1ccccc1 [DAPT],suppression of the cleavage of the Notch,[4],suppressed the cleavage of each of the APP and the Notch
same,suppression of the cleavage of the APP,[3]; yeast (FIG. 7),suppressed the cleavage of each of the APP and the Notch
